According to US10322123B2, “Compound for anti-cancer therapy that acts by targeting GOF mutant P53 and stimulates P73 to restore the P53 pathway signaling” (The Penn State Research Foundation, priority 2014, dated 2019):
Residues, ends and D or L forms follow the SMILES beside them. *: point of attachment. Cbz = O=C(OCc1ccccc1)*

Molecular target: mutant p53 (Homo sapiens, UniProt P04637, P309S/R273H)
Type: cell-based
Parameters: Mutant p53 protein levels in mutant p53-expressing cancer cells treated with NSC59984; endogenous in cells; host or cells: SW480, DLD-1, Hop92, RXF393; effect on NSC59984-mediated down-regulation of mutant p53: dose or concentration left out as unconfirmed
Settings: SW480 cells, MG132 with NSC59984, 16 hr
Description: The primary antibodies indicated in the figures were incubated with the transferred PVDF in blocking buffer at 4° C. overnight. Antibody binding was detected on PVDF with appropriate IRDye-secondary antibodies (LI-COR Biosciences, USA) by the ODYSSEY infrared imaging system.

Question: Which “effect on NSC59984-mediated down-regulation of mutant p53” value does the source give for CC(C)C[C@@H](C=O)NC(=O)[C@H](CC(C)C)NC(=O)[C@H](CC(C)C)NC(=O)OCc1ccccc1 [MG132, reference compound] (Cbz-Leu-Leu-Leu-aldehyde) here?
Answer: rescued
